# Laboratory results taken from US10278942B2 (PELOTON THERAPEUTICS, INC., priority 2015, dated 2019).
# Target: T1, HIF-2α HIS TAG-PASB Domain (Homo sapiens, UniProt Q99814)
# T1 construct: 100 nM HIF-2α HIS TAG-PASB Domain
# Assay: HIF-2α Scintillation Proximity Assay (SPA)
# Assay type: binding
# Conditions: read-out: Scintillation Proximity Assay IC50
# Procedure, shortened: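 IC50 values rest on percent inhibition, where the sample signal is scaled between high and low controls. Wells contain about 100 μL: compound dispensed as 2 μL of DMSO solution, 88 μL protein-probe mix and 10 μL of beads.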
# T1 sequence (Q99814 240-350 limits assumed): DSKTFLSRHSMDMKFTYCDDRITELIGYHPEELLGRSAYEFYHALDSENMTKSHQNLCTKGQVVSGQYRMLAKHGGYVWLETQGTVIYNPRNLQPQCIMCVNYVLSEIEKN
row,SMILES,IC50
1,CS(=O)(=O)c1ccc(C(F)(F)CO)c2c1[C@H](O)C(F)(F)C2 [Compound 556],> 1 µM
2,Cn1nccc1-c1ccc(S(=O)(=O)C(F)(F)F)c2c1CC(F)(F)[C@H]2O [Compound 559],> 1 µM
3,O=S(=O)(c1ccc(-c2cn[nH]c2)c2c1[C@H](O)C(F)(F)C2)C(F)(F)F [Compound 560],> 1 µM
4,O=S(=O)(c1ccc(-c2ccn[nH]2)c2c1[C@H](O)C(F)(F)C2)C(F)(F)F [Compound 561],> 1 µM
5,Cc1n[nH]c(C)c1-c1ccc(S(=O)(=O)C(F)(F)F)c2c1CC(F)(F)[C@H]2O [Compound 562],> 1 µM
6,O=S(=O)(c1ccc(-c2ccccc2O)c2c1[C@H](O)C(F)(F)C2)C(F)(F)F [Compound 564],> 1 µM
7,Cn1cc(-c2ccc(S(=O)(=O)C(F)(F)F)c3c2CC(F)(F)[C@H]3O)cn1 [Compound 566],> 1 µM
8,O=C1Cc2ccc(-c3ccc(S(=O)(=O)C(F)(F)F)c4c3CC(F)(F)[C@H]4O)cc2N1 [Compound 567],> 1 µM
9,O=S(=O)(c1ccc(-c2ccc3cn[nH]c3c2)c2c1[C@H](O)C(F)(F)C2)C(F)(F)F [Compound 568],> 1 µM
10,CCCOc1ccc(S(=O)(=O)C(F)(F)F)c2c1CCC2O (stereo not shown) [Compound 583],> 1 µM
11,O[C@H]1c2c(C(F)(F)F)ccc(OC3CC(F)(F)C3)c2CC1(F)F [Compound 587],< 0.05 µM
12,COc1ccc(S(=O)(=O)C(F)(F)F)c2c1CCC2O (stereo not shown) [Compound 588],> 1 µM
13,CCOc1ccc(S(=O)(=O)C(F)(F)F)c2c1CCC2O (stereo not shown) [Compound 589],> 1 µM
14,COc1ccc(S(=O)(=O)C(F)(F)F)c2c1CC(F)(F)C2O (stereo not shown) [Compound 590],> 1 µM
15,CC(C)Oc1ccc(S(=O)(=O)C(F)(F)F)c2c1CCC2O (stereo not shown) [Compound 592],> 1 µM
16,O=S(=O)(c1ccc(OC2CCOC2)c2c1C(O)CC2)C(F)(F)F (stereo not shown) [Compound 596],> 1 µM
17,O=S(=O)(c1ccc(OCC2CC2)c2c1C(O)CC2)C(F)(F)F (stereo not shown) [Compound 597],> 1 µM
18,COCCOc1ccc(S(=O)(=O)C(F)(F)F)c2c1CCC2O (stereo not shown) [Compound 599],> 1 µM
19,COCCCOc1ccc(S(=O)(=O)C(F)(F)F)c2c1CCC2O (stereo not shown) [Compound 600],> 1 µM
20,O=S(=O)(c1ccc(OC2CCNCC2)c2c1C(O)CC2)C(F)(F)F (stereo not shown) [Compound 606],> 1 µM
21,O=S(=O)(c1ccc(OCCCO)c2c1C(O)CC2)C(F)(F)F (stereo not shown) [Compound 611],> 1 µM
22,O=S(=O)(c1ccc(OCCO)c2c1C(O)CC2)C(F)(F)F (stereo not shown) [Compound 613],> 1 µM

row,SMILES,IC50
1,O=S(=O)(c1ccc(OC2CCC(O)CC2)c2c1C(O)CC2)C(F)(F)F (stereo not shown) [Compound 615],> 1 µM
2,CC1(COc2ccc(S(=O)(=O)C(F)(F)F)c3c2CCC3O)COC1 (stereo not shown) [Compound 621],> 1 µM
3,CC1CC(Oc2ccc(S(=O)(=O)C(F)(F)F)c3c2CCC3O)CCO1 (stereo not shown) [Compound 624],> 1 µM
4,COC(C)COc1ccc(S(=O)(=O)C(F)(F)F)c2c1CCC2O (stereo not shown) [Compound 625],> 1 µM
5,CC(=O)N1CCCC(Oc2ccc(S(=O)(=O)C(F)(F)F)c3c2CC(F)(F)C3O)C1 (stereo not shown) [Compound 627],> 1 µM
6,CS(=O)(=O)N1CCCC(Oc2ccc(S(=O)(=O)C(F)(F)F)c3c2CC(F)(F)C3O)C1 (stereo not shown) [Compound 628],> 1 µM
7,CC(=O)N1CCC(Oc2ccc(S(=O)(=O)C(F)(F)F)c3c2CC(F)(F)C3O)C1 (stereo not shown) [Compound 629],> 1 µM
8,CS(=O)(=O)N1CCC(Oc2ccc(S(=O)(=O)C(F)(F)F)c3c2CC(F)(F)C3O)C1 (stereo not shown) [Compound 630],> 1 µM
9,CS(=O)(=O)CCCOc1ccc(S(=O)(=O)C(F)(F)F)c2c1CC(F)(F)C2O (stereo not shown) [Compound 631],> 1 µM
10,CN(C)C(=O)COc1ccc(S(=O)(=O)C(F)(F)F)c2c1CC(F)(F)C2O (stereo not shown) [Compound 632],> 1 µM
11,O=C(O)COc1ccc(S(=O)(=O)C(F)(F)F)c2c1CC(F)(F)C2O (stereo not shown) [Compound 633],> 1 µM
12,CN1CCCC(Oc2ccc(S(=O)(=O)C(F)(F)F)c3c2CC(F)(F)C3O)C1 (stereo not shown) [Compound 634],> 1 µM
13,NCCOc1ccc(S(=O)(=O)C(F)(F)F)c2c1CC(F)(F)C2O (stereo not shown) [Compound 635],> 1 µM
14,CC(=O)NCCOc1ccc(S(=O)(=O)C(F)(F)F)c2c1CC(F)(F)C2O (stereo not shown) [Compound 636],> 1 µM
15,CNC(=O)COc1ccc(S(=O)(=O)C(F)(F)F)c2c1CC(F)(F)C2O (stereo not shown) [Compound 638],> 1 µM
16,NC(=O)COc1ccc(S(=O)(=O)C(F)(F)F)c2c1CC(F)(F)C2O (stereo not shown) [Compound 640],> 1 µM
17,CN(C)CCOc1ccc(S(=O)(=O)C(F)(F)F)c2c1CC(F)(F)C2O (stereo not shown) [Compound 641],> 1 µM
18,CN1CCC(Oc2ccc(S(=O)(=O)C(F)(F)F)c3c2CC(F)(F)C3O)C1 (stereo not shown) [Compound 642],> 1 µM
19,O=S(=O)(c1ccc(OC2CCNC2)c2c1C(O)C(F)(F)C2)C(F)(F)F (stereo not shown) [Compound 643],> 1 µM
20,CNC(=O)C(C)Oc1ccc(S(=O)(=O)C(F)(F)F)c2c1CC(F)(F)C2O (stereo not shown) [Compound 645],> 1 µM
21,CC(Oc1ccc(S(=O)(=O)C(F)(F)F)c2c1CC(F)(F)C2O)C(=O)O (stereo not shown) [Compound 646],> 1 µM
22,CC(Oc1ccc(S(=O)(=O)C(F)(F)F)c2c1CC(F)(F)C2O)C(=O)N(C)C (stereo not shown) [Compound 647],> 1 µM

row,SMILES,IC50
1,COC(=O)C(C)Oc1ccc(S(=O)(=O)C(F)(F)F)c2c1CC(F)(F)C2O (stereo not shown) [Compound 648],0.25 to 1 µM
2,CC(Oc1ccc(S(=O)(=O)C(F)(F)F)c2c1CC(F)(F)C2O)C(N)=O (stereo not shown) [Compound 649],> 1 µM
3,CNCCOc1ccc(S(=O)(=O)C(F)(F)F)c2c1CC(F)(F)C2O (stereo not shown) [Compound 650],> 1 µM
4,OC1c2cccc(OCC(F)F)c2CC1(F)F (stereo not shown) [Compound 651],> 1 µM
5,OC1c2c(F)ccc(OCC(F)F)c2CC1(F)F (stereo not shown) [Compound 652],> 1 µM
6,OC1c2c(Br)ccc(OC(F)(F)F)c2CC1(F)F (stereo not shown) [Compound 653],> 1 µM
7,OC1CCc2c(OCC(F)F)ccc(C(F)(F)F)c21 (stereo not shown) [Compound 662],> 1 µM
8,CC(Oc1ccc(S(=O)(=O)C(F)(F)F)c2c1CC(F)(F)C2O)c1ccccc1 (stereo not shown) [Compound 664],> 1 µM
9,OC1c2c(I)cc(I)c(OCC(F)F)c2CC1(F)F (stereo not shown) [Compound 666],> 1 µM
10,OC1c2c(I)cc(I)c(OCC(F)F)c2CC1F (stereo not shown) [Compound 667],> 1 µM
11,COC1Cc2c(OCC(F)F)ccc(C(F)(F)F)c2C1O (stereo not shown) [Compound 668],> 1 µM
12,CCOc1ccc(C(F)(F)F)c2c1CC[C@H]2O [Compound 673],> 1 µM
13,CCOc1ccc(C#N)c2c1CC(F)(F)[C@H]2O [Compound 674],> 1 µM
14,COc1ccc(I)c2c1CC(F)(F)C2O (stereo not shown) [Compound 679],> 1 µM
15,COc1ccc(-c2cn[nH]c2)c2c1CC(F)(F)C2O (stereo not shown) [Compound 680],> 1 µM
16,OC1c2c(-c3cn[nH]c3)ccc(OCC(F)F)c2CC1(F)F (stereo not shown) [Compound 684],> 1 µM
17,OC1c2c(Br)ccc(OCC(F)F)c2CC1(F)F (stereo not shown) [Compound 687],> 1 µM
18,N#Cc1ccc(OCC(F)F)c2c1[C@H](O)C(F)(F)C2 [Compound 688],> 1 µM
19,O[C@H]1c2c(OCC(F)F)ccc(C(F)(F)F)c2[C@@H](F)C1(F)F [Compound 689],> 1 µM
20,O[C@H]1c2c(OCC(F)F)ccc(C(F)(F)F)c2[C@H](F)C1(F)F [Compound 690],> 1 µM
21,NC(=O)C1CCc2c(OCC(F)F)ccc(C(=O)O)c21 (stereo not shown) [Compound 693],> 1 µM
22,O=C1c2c(C(F)(F)F)ccc(OCC(F)F)c2CC1F (stereo not shown) [Compound 694],> 1 µM

row,SMILES,IC50
1,O=C1c2c(C(F)(F)F)ccc(OCC(F)F)c2CC1(F)F [Compound 695],> 1 µM
2,O/N=C1\CCc2c(OCC(F)F)ccc(C(F)(F)F)c21 [Compound 698],> 1 µM
3,O/N=C1/c2c(C(F)(F)F)ccc(OCCCF)c2[C@@H](F)C1(F)F [Compound 700],0.05 to 0.249 µM
4,O/N=C1/c2c(C(F)(F)F)ccc(OCCCF)c2CC1(F)F [Compound 702],> 1 µM
5,NCC1(O)CCc2c(OCC(F)F)ccc(C(F)(F)F)c21 (stereo not shown) [Compound 705],> 1 µM
6,CCOCC1(COc2ccc(S(=O)(=O)C(F)(F)F)c3c2CC(F)(F)[C@H]3O)COC1 [Compound 708],> 1 µM
7,O=C1CC[C@H](Oc2ccc(S(=O)(=O)C(F)(F)F)c3c2CC(F)(F)[C@H]3O)CN1 [Compound 719],> 1 µM
8,O=C1CC[C@@H](Oc2ccc(S(=O)(=O)C(F)(F)F)c3c2CC(F)(F)[C@H]3O)CN1 [Compound 720],> 1 µM
9,O=S(=O)(c1ccc(O[C@@H]2CCCc3cn[nH]c32)c2c1[C@H](O)C(F)(F)C2)C(F)(F)F [Compound 729],> 1 µM
10,O=S(=O)(c1ccc(O[C@H]2CCCc3cn[nH]c32)c2c1[C@H](O)C(F)(F)C2)C(F)(F)F [Compound 732],> 1 µM
11,O=S(=O)(c1ccc(OC2CCc3ncccc32)c2c1[C@H](O)C(F)(F)C2)C(F)(F)F (stereo partly shown) [Compound 733],> 1 µM
12,CS(=O)(=O)c1ccc(O[C@H]2C[C@H](O)C2)c2c1[C@H](O)C(F)(F)[C@@H]2F [Compound 738],> 1 µM
13,O=S(=O)(c1ccc(OC2CCOCC2)c2c1C(O)CC2)C(F)(F)F (stereo not shown) [Compound 745],> 1 µM
14,CS(=O)(=O)c1ccc(O[C@H]2CC[C@H](C#N)CC2)c2c1[C@H](O)C(F)(F)[C@@H]2F [Compound 757],> 1 µM
15,CS(=O)(=O)c1ccc(O[C@H]2CC[C@@H](C#N)CC2)c2c1[C@H](O)C(F)(F)[C@@H]2F [Compound 758],> 1 µM
16,CS(=O)(=O)c1ccc(O[C@H]2C[C@@H](C(N)=O)C2)c2c1[C@H](O)C(F)(F)[C@@H]2F [Compound 763],> 1 µM
17,CS(=O)(=O)c1ccc(OC[C@H]2CC2(F)F)c2c1[C@H](O)C(F)(F)[C@@H]2F [Compound 769],0.05 to 0.249 µM
18,CS(=O)(=O)c1ccc(OCCC2(C#N)CC2)c2c1[C@H](O)C(F)(F)[C@@H]2F [Compound 772],> 1 µM
19,CS(=O)(=O)c1ccc(OC2CC2)c2c1[C@H](O)C(F)(F)[C@@H]2F [Compound 773],> 1 µM
